Measured values taken from patent US5932577A, “Substituted oxobutyric acids as matrix metalloprotease inhibitors” (Bayer Corporation, priority 1997, dated 1999).

Key:
[1] = biological target: T1, Human Recombinant Gelatinase A (MMP-2) (Homo sapiens, UniProt P08253); assay: P218 quenched fluorescence assay (Microfluorometric Profiling Assay), MMP-2; type: biochemical; settings: for IC50: 6 μM P218, pH 6.5, 25 min at 37° C., read-out: MMP-2 Fluorogenic IC50; for inhibition at 5 µM: read-out: MMP-2 Fluorogenic, I = % inhibition
T1 sequence (P08253 110-660): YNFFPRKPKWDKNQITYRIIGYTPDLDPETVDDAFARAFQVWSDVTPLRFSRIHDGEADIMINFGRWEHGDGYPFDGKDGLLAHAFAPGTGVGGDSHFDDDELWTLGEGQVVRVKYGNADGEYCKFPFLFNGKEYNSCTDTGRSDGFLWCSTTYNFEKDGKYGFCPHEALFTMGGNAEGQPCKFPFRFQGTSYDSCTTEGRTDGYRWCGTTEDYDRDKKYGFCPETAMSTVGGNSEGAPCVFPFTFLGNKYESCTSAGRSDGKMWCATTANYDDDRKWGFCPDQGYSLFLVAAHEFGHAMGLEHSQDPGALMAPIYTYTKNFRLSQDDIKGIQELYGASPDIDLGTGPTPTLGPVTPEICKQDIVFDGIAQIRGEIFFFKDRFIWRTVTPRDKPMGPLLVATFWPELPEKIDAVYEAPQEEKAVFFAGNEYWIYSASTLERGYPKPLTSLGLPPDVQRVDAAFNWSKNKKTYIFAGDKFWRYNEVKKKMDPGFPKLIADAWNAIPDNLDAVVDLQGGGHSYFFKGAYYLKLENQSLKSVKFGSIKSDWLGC

[2] = biological target: T2, Human Recombinant Gelatinase B (MMP-9) (Homo sapiens, UniProt P14780); assay: P218 quenched fluorescence assay (Microfluorometric Profiling Assay), MMP-9; type: biochemical; settings: 6 μM P218, pH 6.5, 25 min at 37° C.; read-out: MMP-9 Fluorogenic IC50
T2 construct: made in house
Excerpt: (§1) P218 Quenched Fluorescence Assay for MMP Inhibition:
(§2) The P218 quenched fluorescence assay (Microfluorometric Profiling Assay) is a modification of that originally described by Knight, et al., FEBS Lett. 296 263, 1992 for a related substance and a variety of matrix metalloproteinases (MMPs) in cuvettes. The assay was run with each invention compound and the three MMPs, MMP-3, MMP-9 and MMP-2, analyzed in parallel, adapted as follows for a 96-well microtiter plate and a Hamilton AT® workstation.
(§3) P218 Fluorogenic Substrate:
(§4) P218 is a synthetic substrate containing a 4-acetyl-7-methoxycoumarin (MCA) group in the N-terminal position and a 3-[2,4-dinitrophenyl]-L-2,3-diaminopropionyl (DPA) group internally. This is a modification of a peptide reported by Knight (1992) that was used as a substrate for matrix metalloproteinases. Once the P218 peptide is cleaved (putative clip site at the Ala-Leu bond), the fluorescence of the MCA group can be detected on a fluorometer with excitation at 328 nm and emission at 393 nm. P218 is currently being produced BACHEM exclusively for Bayer. P218 has the structure:
(§5) H-MCA-Pro-Lys-Pro-Leu-Ala-Leu-DPA-Ala-Arg-NH2 (MW 1332.2)
Preparation of Human Recombinant Pro-Gelatinase B (MMP-9):
Recombinant Human Pro-MMP-9: Human pro-gelatinase B (pro-MMP-9) derived from U937 cDNA as described by Wilhelm, et al. J. Biol. Chem. 264, 17213 (1989) was expressed as the full-length form using a baculovirus protein expression system. The pro-enzyme was purified using methods previously described by Hibbs, et al. J. Biol. Chem. 260, 2493 (1984).
Activation of Pro-MMP-9: […] 20 μg/mL in 50 mM Tris at pH 7.4, 10 mM CaCl2, 150 mM NaCl, and 0.005% Brij-35 (MMP-9 activation buffer) was activated by incubation with 0.5 mM p-aminophenylmercuric acetate (APMA) for 3.5 h at 37° C. The enzyme was dialyzed against the same buffer to revmove the APMA.
(§6) Hamiltion Microlab AT Plus: The MMP-Profiling Assay is performed robotically on a Hamilton MicroLab AT Plus®. The Hamilton is programmed to: (1) serially dilute up to 11 potential inhibitors automatically from a 2.5 mM stock in 100% DMSO; (2) distribute substrate followed by inhibitor into a 96 well Cytofluor plate; and (3) add a single enzyme to the plate with mixing to start the reaction. Subsequent plates for each additional enzyme are prepared automatically by beginning the program at the substrate addition point, remixing the diluted inhibitors and beginning the reaction by addition of enzyme. In this way, all MMP assays were done using the same inhibitor dilutions.
(§7) Millipore Cytofluor II. Following incubation, the plate was read on a Cytofluor II fluorometric plate reader with excitation at 340 nm and emission at 395 nm with the gain set at 80.
(§8) Microfluorometric Reaction Buffer (MRB): Dilution of test compounds, enzymes, and P218 substrate for the microfluorometric assay were made in microfluorometric reaction buffer consisting of 50 mM 2-(N-morpholino)ethanesulfonic acid (MES) at pH 6.5 with 10 mM CaCl2, 150 mM NaCl, 0.005% Brij-35 and 1% DMSO.
(§9) MMP Microfluorometric Profiling Assay. The assay is done with a final substrate concentration of 6 μM P218 and approximately 0.5 to 0.8 nM MMP with variable drug concentrations. The Hamilton is programmed to serially dilute up to 11 compounds from a 2.5 mM stock (100% DMSO) to 10× the final compounds concentrations in the assay. Initially, the instrument delivers various amounts of microfluoromentric reaction buffer (MRB) to a 96 tube rack of 1 ml Marsh dilution tubes. The instrument then picks up 20 μl of inhibitor (2.5 mM) from the sample rack and mixes it with a buffer in row A of the Marsh rack, resulting in a 50 μM drug concentration. The inhibitors are then serially diluted to 10, 5, 1, 0.2, 0.05 and 0.01 μM. […]

[3] = biological target: T3, Recombinant Human CHO Stromelysin (MMP-3) (Homo sapiens, UniProt P08254); assay: P218 quenched fluorescence assay (Microfluorometric Profiling Assay), MMP-3; type: biochemical; settings: for IC50: 6 μM P218, pH 6.5, 25 min at 37° C., read-out: MMP-3 Fluorogenic IC50; for inhibition at 5 µM: read-out: MMP-3 Fluorogenic, I = % inhibition
T3 construct: made in house; host or cells: CHO (Chinese hamster ovary) cells
Excerpt: as §1, §2, §3, §4, §5
Recombinant Human CHO Stromelysin (MMP-3)
Recombinant Human CHO Pro-MMP-3: Human CHO pro-stromelysin-257 (pro-MMP-3) was expressed and purified as described by Housley, et al., J. Biol. Chem. 268, 4481 (1993).
Activation of Pro-MMP-3: Pro-MMP-3 at 1.72 μM (100 μg/mL) in 5 mM Tris at pH 7.5, 5 mM CaCl2, 25 mM NaCl, and 0.005% Brij-35 MMP-3) activation buffer) was activated by incubation with TPCK (N-tosyl-(L)-phenylalanine chloromethyl ketone) trypsin (1: 100 w/w to pro-MMP-3) at 25° C. for 30 min. The reaction was stopped by addition of soybean trypsin inhibitor (SBTI; 5:1 w/w to trypsin concentration). This activation protocol results in the formation of 45 kDa active MMP-3, which still contains the C-terminal portion of the enzyme.
as §6, §7, §8, §9

[4] = tested on: human ovarian carcinoma xenografts; settings: cited from earlier work
human colon tumor = settings: given intraperitoneally, orthotopic model, nude mice; cited from earlier work

T3 sequence (P08254 100-477): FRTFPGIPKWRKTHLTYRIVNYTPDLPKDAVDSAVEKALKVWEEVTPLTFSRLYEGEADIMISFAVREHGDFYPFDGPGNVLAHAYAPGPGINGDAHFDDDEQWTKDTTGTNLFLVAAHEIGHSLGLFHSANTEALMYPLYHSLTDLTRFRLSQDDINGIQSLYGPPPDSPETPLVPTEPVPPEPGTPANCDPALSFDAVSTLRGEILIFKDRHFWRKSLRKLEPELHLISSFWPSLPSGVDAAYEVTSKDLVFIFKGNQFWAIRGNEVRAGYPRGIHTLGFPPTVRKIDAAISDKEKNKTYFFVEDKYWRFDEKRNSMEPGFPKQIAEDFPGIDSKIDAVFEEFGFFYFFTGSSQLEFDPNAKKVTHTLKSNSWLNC
T2 sequence (P14780 107-707 limits assumed): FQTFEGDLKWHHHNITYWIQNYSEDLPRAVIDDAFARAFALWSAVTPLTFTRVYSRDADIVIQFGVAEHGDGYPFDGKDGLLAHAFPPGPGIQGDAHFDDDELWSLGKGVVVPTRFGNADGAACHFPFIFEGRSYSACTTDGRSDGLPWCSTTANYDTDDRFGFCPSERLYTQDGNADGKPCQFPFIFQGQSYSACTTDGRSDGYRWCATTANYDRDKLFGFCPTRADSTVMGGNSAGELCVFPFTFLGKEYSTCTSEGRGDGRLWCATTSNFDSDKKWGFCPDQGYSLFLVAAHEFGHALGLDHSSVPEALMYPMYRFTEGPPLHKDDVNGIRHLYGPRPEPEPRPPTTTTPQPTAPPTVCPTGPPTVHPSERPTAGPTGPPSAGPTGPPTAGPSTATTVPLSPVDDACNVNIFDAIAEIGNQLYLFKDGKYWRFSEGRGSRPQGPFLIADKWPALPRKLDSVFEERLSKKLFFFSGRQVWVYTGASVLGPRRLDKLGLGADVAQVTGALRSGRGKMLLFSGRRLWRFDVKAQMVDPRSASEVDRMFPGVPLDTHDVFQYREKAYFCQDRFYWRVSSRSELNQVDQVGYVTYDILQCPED

| Structure (SMILES) | IC50 [1] | IC50 [2] | IC50 [3] | inhibition at 5 µM [1] | inhibition at 5 µM [3] | survival of mice bearing human ovarian carcinoma xenografts [4] | inhibition of human colon tumor growth and spread (human colon tumor) |
| --- | --- | --- | --- | --- | --- | --- | --- |
| CCCCCCCCCCC(=O)CC(CCN1C(=O)c2ccccc2C1=O)C(=O)O (stereo not drawn) [I, 1,3-dihydro-1,3-dioxo-α-(2-oxododecyl)-2H-isoindole-2-butanoic acid] | 1.3 µM | 0.12 µM | 4.8 µM |  |  |  |  |
| CCCCCCCCCC(=O)CC(CCN1C(=O)c2ccccc2C1=O)C(=O)O (stereo not drawn) [II, 1,3-dihydro-1,3-dioxo-α-(2-oxoundecyl)-2H-isoindole-2-butanoic acid] | 1.85 µM | 0.24 µM | 5 µM |  |  |  |  |
| CCCCCCCCCCCC(=O)CC(CCN1C(=O)c2ccccc2C1=O)C(=O)O (stereo not drawn) [III, 1,3-dihydro-1,3-dioxo-α-(2-oxotidecyl)-2H-isoindole-2-butanoic acid] | 0.75 µM | 0.091 µM | 2.95 µM |  |  |  |  |
| CCCCCCCCCCCCC(=O)CC(CCN1C(=O)c2ccccc2C1=O)C(=O)O (stereo not drawn) [IV, 1,3-dihydro-1,3-dioxo-α-(2-oxotetradecyl)-2H-isoindole-2-butanoicacid] | 0.515 µM | 0.155 µM | 2.38 µM |  |  |  |  |
| COc1ccc(CC(=O)CC(CCc2ccccc2)C(=O)O)cc1 (stereo not drawn) [IX] |  |  |  | 18% | 9% |  |  |
| CCCCCCCCCCCCCC(=O)CC(CCN1C(=O)c2ccccc2C1=O)C(=O)O (stereo not drawn) [V, 1,3-dihydro-1,3-dioxo-α-(2-oxopentadecyl)-2H-isoindole-2-butanoic acid] | 1.1 µM | 0.15 µM | 3.38 µM |  |  |  |  |
| CCCCCCCCCCCCCCC(=O)CC(CCN1C(=O)c2ccccc2C1=O)C(=O)O (stereo not drawn) [VI, 1,3-dihydro-1,3-dioxo-α-(2-oxohexadecyl)-2H-isoindole-2-butanoic acid] | 1.02 µM | 0.235 µM |  |  | 45% |  |  |
| COc1ccc(CCCC(=O)CC(CCc2ccccc2)C(=O)O)cc1 (stereo not drawn) [VII] |  |  |  | 18% | 3% |  |  |
| CNC(=O)[C@H](Cc1ccccc1)NC(=O)[C@H](CC(C)C)[C@H](CSc1cccs1)C(=O)NO [batimastat] |  |  |  |  |  | prolongs the survival | inhibits human colon tumor growth and spread |
